Patent US11020414B2, “Antimicrobial compositions with cysteamine” (priority 2010, dated 2021)
“And” between values parts separate entries of the source, which are not always exact repeats. Equal values may be shown once. Where a name gives a salt, the structure may show the parent alone. Read-outs that look alike come from different tables or passages of the source.

Assays:
[1] = test system: Pseudomonas aeruginosa Pa01; assay: FIC index of combinations with conventional antibiotics, strain Pa01; assay type: cell-based; conditions: strain Pa01 (Col^R); for FICI (Additive) Cip: in combination with Ciprofloxacin
Procedure: (§1) The bacterial inoculum was established by the dilution method from actively-growing cultures in Mueller-Hinton (MH) broth, standardized with 0.5 McFarland turbidity standard as described in the CLSI method M26-A.
(§2) Both the bacterial inoculum and the antimicrobial agents, including the compounds structurally related to cysteamine, were added simultaneously to the plates. The plates were incubated at 37° C. for 24 h and the optical density was read at 625 nm on a microtitre plate reader (BioTek Powerwave XS, Winooski, USA). The MIC was obtained as the lowest concentration of antimicrobial showing total inhibition of bacterial growth.
(§3) The FIC corresponds to an interaction coefficient indicating whether the combination of antimicrobial agents is synergistic, additive, antagonist or neutral. The FIC is determined by comparing the activity of an agent in combination (MIC of agent A+agent B) with the activity of the agent alone (MIC of agent A or agent B) as follow (Singh et al., 2000): FIC=MICA[combination]/MICA[alone]+MICB[combination]/MICB[alone]
(§4) Additive combinations of two antimicrobial agents are indicated by a FIC index of 1, whereas a FIC index<1 indicates synergistic combinations. Neutral combinations would give a FIC between 1 and 4, a FIC index higher than 4 indicates antagonist effects between the two antimicrobial agents.
(§5) The FIC was also calculated to assess the interaction of two antimicrobial agents in combination against bacterial samples.

[2] = test system: Pseudomonas aeruginosa Pa14; assay: FIC index of combinations with conventional antibiotics, strain Pa14; assay type: cell-based; conditions: strain Pa14 (Col^R); for FICI (Additive) Col: in combination with Colistin; for FICI (Additive) Gent: in combination with Gentamicin; for FICI (Additive) Tob: in combination with Tobramycin
Procedure: as §1, §2, §3, §4, §5

[3] = test system: Pseudomonas aeruginosa Pa058; assay: FIC index of combinations with conventional antibiotics, strain Pa058; assay type: cell-based; conditions: strain Pa058 (Col^R, Cip^R Tob^R); for FICI (Additive) Cip: in combination with Ciprofloxacin; for FICI (Additive) Gent: in combination with Gentamicin
Procedure: as §1, §2, §3, §4, §5

[4] = test system: Pseudomonas aeruginosa Pa57388A; assay: FIC index of combinations with conventional antibiotics, strain Pa57388A; assay type: cell-based; conditions: strain Pa57388A (Col^R); for FICI (Additive) Gent: in combination with Gentamicin; for FICI (Additive) Tob: in combination with Tobramycin
Procedure: as §1, §2, §3, §4, §5

[5] = test system: Pseudomonas aeruginosa Pa57388D; assay: FIC index of combinations with conventional antibiotics, strain Pa57388D; assay type: cell-based; conditions: strain Pa57388D (Col^R, Gent^R); for FICI (Additive) Tob / FICI (Synergy) Tob: in combination with Tobramycin
Procedure: as §1, §2, §3, §4, §5

[6] = test system: Burkholderia cepacia NCTC10743; assay: MIC100 and FIC of cysteamine and tobramycin, MH broth (CLSI) and artificial sputum medium; assay type: cell-based
Procedure: as §2, §3
(§6) The complex pathophysiology of CF is characterized by airway obstruction caused by abnormal mucus secretion and infection, with 60-80% of patients being chronically infected with the biofilm-forming bacteria Pseudomonas aeruginosa (George et al., 2009). With a prevalence of up to 10% in adult CF patients, B. cepacia complex is a rare but major concern due to its high virulence, morbidity and transmissibility (O'Malley, 2009; Brüssow, 2012). We tested the antimicrobial activity of cysteamine-tobramycin combinations in artificial sputum medium (Yang, et al., 2011) against 4 P. aeruginosa (PAO1, ATCC27853, DSMZ1128 and DSMZ1299) and 2 B. cepacia complex strains (NCTC10743 and NCTC10744).

[7] = test system: Burkholderia cepacia NCTC10744; assay: as above; assay type: cell-based; conditions: read-out: MIC100, agent alone
Procedure: as §2, §3, §6

[8] = test system: P. aeruginosa PAO1 biofilm; assay: Minimum biofilm eradication concentration against established biofilm (FIG. 4); assay type: cell-based, Pseudomonas aeruginosa
[9] = test system: 4 P. aeruginosa (PAO1, ATCC27853, DSMZ1128 and DSMZ1299) and 2 B. cepacia complex strains (NCTC10743 and NCTC10744); assay: microbe, parasite or virus in culture; assay type: cell-based, Pseudomonas aeruginosa; Burkholderia cepacia complex; conditions: all strains
Text: as §6

[10] = test system: P. aeruginosa PAO1 planktonic cells; assay: MIC in physiologically-relevant ionic concentrations (FIG. 7); assay type: cell-based, Pseudomonas aeruginosa; conditions: in the presence of Ca2+ and in the presence of DNA
Procedure: Bacterial growth was followed over a 24 h period and absorbance read using a BioTek microtitre plate reader at 625 nm. Total bacterial growth inhibition was retained in the presence of NaCl, CaCl2 or DNA and at two-fold the normal MIC100 in the presence of mucin. Tobramycin activity was inhibited in the presence of the divalent cation ca^2+ and in the presence of the anionic polymer DNA. […] A similar method as described above (1.4) was used for the determination of the antimicrobial activity of cysteamine (Lynovex®) in the presence of high ionic concentrations. […] Bacterial growth was followed over a 24 h period and absorbance read using a BioTek microtitre plate reader at 625 nm.

[11] = test system: P. aeruginosa ATCC 27853; assay: MIC and FIC of antibiotics with cysteamine, environments mimicking a CF lung; assay type: cell-based, Pseudomonas aeruginosa
Procedure: as §2, §3
The range of concentrations of antimicrobial agents was 0-10 μg/ml.

[12] = in combination with Colistin, hydrochloride
[13] = in combination with Gentamicin, hydrochloride
[14] = in combination with Tobramycin, hydrochloride
[15] = in combination with Ciprofloxacin, hydrochloride
[16] = in combination with Ciprofloxacin

Structure (SMILES): NCCS [Cysteamine Hydrochloride (Cyst HCl), Cysteamine hydrochloride]
- FICI (Additive) Cip ([1]; hydrochloride): 0.75 and 0.52 and 0.56
- FICI (Additive) Col [1, 12]: 0.5
- FICI (Additive) Gent [1, 13]: 0.75 and 0.5
- FICI (Additive) Tob [1, 14]: 0.51 and 0.53 and 0.5
- FICI (Synergy) Tob [1, 14]: 0.25 and 0.31 and 0.38 and 0.28 and 0.19
- FICI (Additive) Cip [2, 15]: 0.56 and 0.63 and 0.5
- FICI (Synergy) Cip [2, 15]: 0.31 and 0.37 and 0.38
- FICI (Additive) Col ([2]; hydrochloride): 0.51 and 0.5 and 0.53 and 0.52
- FICI (Additive) Gent ([2]; hydrochloride): 0.5 and 0.63 and 0.56
- FICI (Additive) Tob ([2]; hydrochloride): 0.63 and 0.75 and 0.5
- FICI (Additive) Cip ([3]; hydrochloride): 0.53 and 0.63 and 0.75 and 0.56
- FICI (Additive) Col [3, 12]: 0.52 and 0.75 and 0.56 and 0.5
- FICI (Synergy) Col [3, 12]: 0.38
- FICI (Additive) Gent ([3]; hydrochloride): 0.75
- FICI (Additive) Cip [4, 15]: 0.53 and 0.5 and 0.63 and 0.56 and 0.75
- FICI (Synergy) Cip [4, 15]: 0.19 and 0.25
- FICI (Additive) Col [4, 12]: 0.53 and 0.52 and 0.5
- FICI (Synergy) Col [4, 12]: 0.25 and 0.31 and 0.19 and 0.26
- FICI (Additive) Gent ([4]; hydrochloride): 0.63
- FICI (Additive) Tob ([4]; hydrochloride): 0.63 and 0.75
- FICI (Additive) Cip [5, 15]: 0.56 and 0.53
- FICI (Synergy) Cip [5, 15]: 0.31 and 0.38
- FICI (Additive) Col [5, 12]: 0.52 and 0.53
- FICI (Synergy) Col [5, 12]: 0.19 and 0.28 and 0.25 and 0.31
- FICI (Additive) Gent [5, 13]: 0.53 and 0.52
- FICI (Additive) Tob ([5]; hydrochloride): 0.51 and 0.5
- FICI (Synergy) Tob ([5]; hydrochloride): 0.25 and 0.31 and 0.19

Structure (SMILES): NC[C@H]1O[C@H](O[C@H]2[C@H](O)[C@@H](O[C@H]3O[C@H](CO)[C@@H](O)[C@H](N)[C@H]3O)[C@H](N)C[C@@H]2N)[C@H](N)C[C@@H]1O [Tobramycin, reference compound]
- MIC ([6]; NCTC10743, B. cepacia NCTC10743, FIG. 6, read-out: MIC100, agent alone): > 16 mg/L
- MIC ([6]; NCTC10743, B. cepacia NCTC10743, in both media (MH broth and ASM), FIG. 11, read-out: MIC100, agent alone): > 16 mg/L
- MIC ([6]; NCTC10743, B. cepacia NH10743, ASM (Artificial Sputum Medium), read-out: MIC100, agent alone): > 16 mg/L
- MIC ([6]; NCTC10743, B. cepacia NH10743, CLSI, read-out: MIC100, agent alone): > 16 mg/L
- MIC ([7]; NCTC10744, B. cepacia NH10744, ASM (Artificial Sputum Medium)): > 16 mg/L
- MIC ([7]; NCTC10744, B. cepacia NH10744, CLSI): > 16 mg/L
- minimum biofilm eradication concentration (MBEC), agent alone [8]: 4 µg/mL
- tobramycin activity in the presence of cysteamine [9]: enhanced
- Tobramycin activity [10]: inhibited
- MIC upon administration with cysteamine compared to administration alone ([11]; environments mimicking those found in a CF lung): greatly reduced
- antimicrobial effect in combination with cysteamine ([11]; mucolytic environment): maintained

Structure (SMILES): CC(=O)N[C@@H](CS)C(=O)O [N-Acetyl Cysteine (NAC), N-Acetyl cysteine, reference compound]
- FICI (Additive) Cip [1]: 0.56 and 0.75
- FICI (Additive) Tob ([1]; in combination with Tobramycin): 0.53 and 0.52 and 0.5 and 0.56
- FICI (Additive) Cip [2, 16]: 0.56 and 0.75
- FICI (Additive) Col [2]: 0.5 and 0.75
- FICI (Additive) Gent [2]: 0.51 and 0.52
- FICI (Additive) Tob [2]: 0.63 and 0.5 and 0.75
- FICI (Additive) Cip [3]: 0.56 and 0.75
- FICI (Additive) Col ([3]; in combination with Colistin): 0.53
- FICI (Additive) Gent [3]: 0.53
- FICI (Additive) Tob ([3]; in combination with Tobramycin): 0.75 and 0.53 and 0.51
- FICI (Additive) Cip [4, 16]: 0.63 and 0.5 and 0.56
- FICI (Additive) Col ([4]; in combination with Colistin): 0.56 and 0.75 and 0.52
- FICI (Additive) Gent [4]: 0.63
- FICI (Additive) Tob [4]: 0.53
- FICI (Additive) Cip [5, 16]: 0.53 and 0.75
- FICI (Additive) Col ([5]; in combination with Colistin): 0.56 and 0.75 and 0.53 and 0.5 and 0.51
- FICI (Additive) Tob [5]: 0.56 and 0.63
- FICI (Synergy) Tob [5]: 0.25 and 0.31
